# Test results from ChEMBL document CHEMBL1133626, “GRid-INdependent descriptors (GRIND): a novel class of alignment-independent three-dimensional molecular descriptors” (J Med Chem, 2000).
# Experiments:
# [1] = biological target: T1, Corticosteroid-binding globulin (Homo sapiens) (UniProt P08185); test: (§1) Binding affinity to the corticosteroid-binding globulin (CBG) receptor.
# T1 sequence (whole entry): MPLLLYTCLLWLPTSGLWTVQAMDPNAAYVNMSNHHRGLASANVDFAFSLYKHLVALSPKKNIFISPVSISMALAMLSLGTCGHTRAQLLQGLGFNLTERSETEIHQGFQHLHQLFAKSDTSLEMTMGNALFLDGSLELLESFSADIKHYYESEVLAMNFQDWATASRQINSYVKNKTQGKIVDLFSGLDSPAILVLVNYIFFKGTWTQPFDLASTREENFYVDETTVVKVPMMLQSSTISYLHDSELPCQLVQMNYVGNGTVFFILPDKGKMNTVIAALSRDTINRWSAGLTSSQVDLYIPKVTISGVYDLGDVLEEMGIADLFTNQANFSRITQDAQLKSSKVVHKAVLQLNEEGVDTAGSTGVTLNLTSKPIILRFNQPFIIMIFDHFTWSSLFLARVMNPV
# [2] = Binding affinity of the Corticosteroid-Binding Globulin Receptor with dehydroepiandrosterone
# [3] = Kinetic inhibition constant was evaluated by measuring the inhibition of the glycogen phosphorylase (GP)
# [4] = Binding affinity of the Corticosteroid-Binding Globulin Receptor with deoxy-corticosterone
# [5] = biological target: 5-hydroxytryptamine receptor 2A (Rattus norvegicus, UniProt P14842); test: Kinetic inhibition constant evaluated by measuring serotonergic activity
# Chain of 5-hydroxytryptamine receptor 2A (P14842 whole entry): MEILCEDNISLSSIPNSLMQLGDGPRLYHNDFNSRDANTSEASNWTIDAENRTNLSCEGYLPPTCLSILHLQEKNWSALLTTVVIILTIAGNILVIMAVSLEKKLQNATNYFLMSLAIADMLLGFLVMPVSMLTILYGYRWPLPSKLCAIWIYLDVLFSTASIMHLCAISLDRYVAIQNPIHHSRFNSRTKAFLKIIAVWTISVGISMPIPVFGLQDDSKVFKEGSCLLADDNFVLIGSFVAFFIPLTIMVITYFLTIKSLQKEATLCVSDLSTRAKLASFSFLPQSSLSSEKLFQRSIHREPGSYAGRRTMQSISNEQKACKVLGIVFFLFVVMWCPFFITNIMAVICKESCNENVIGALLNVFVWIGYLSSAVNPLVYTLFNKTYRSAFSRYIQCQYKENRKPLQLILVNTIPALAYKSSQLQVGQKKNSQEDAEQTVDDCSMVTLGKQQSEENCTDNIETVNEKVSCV
# [6] = as §1
# [7] = Binding affinity of the Corticosteroid-Binding Globulin Receptor with androstanediol
# [8] = biological target: T1, Corticosteroid-binding globulin (Homo sapiens)
# [9] = Binding affinity of the Corticosteroid-Binding Globulin Receptor with cortisol
# [10] = Binding affinity of the Corticosteroid-Binding Globulin Receptor with androsterone
# [11] = Binding affinity of the Corticosteroid-Binding Globulin Receptor with androstenediol
# [12] = Binding affinity of the Corticosteroid-Binding Globulin Receptor with androstenedione
# [13] = Binding affinity of the Corticosteroid-Binding Globulin Receptor with corticosterone
structure (smiles),measurement,setting,value
C[C@]12CC[C@@H]3c4ccc(O)cc4CC[C@H]3[C@@H]1C[C@@H](O)[C@@H]2O,Log K,[1],5
NN1C(=O)N[C@@]2(O[C@@H](CO)[C@@H](O)[C@H](O)[C@@H]2O)C1=O,Log K,[2],5
same,pKi,[3],3.84
O=C1CNC(=O)[C@@]2(N1)O[C@@H](CO)[C@@H](O)[C@H](O)[C@@H]2O,pKi,[3],4.22
same,Log K,[4],7.65
CC(=O)[C@@]1(O)[C@H](O)C[C@H]2[C@@H]3CC=C4CC(=O)CC[C@]4(C)[C@H]3CC[C@@]21C,Log K,[1],6.14
C[C@]12CCC(=O)C=C1CC[C@@H]1[C@@H]2CC[C@]2(C)C(=O)CC[C@@H]12,Log K,[1],5.76
C[C@]12CC[C@H](O)C[C@@H]1CC[C@@H]1[C@@H]2CC[C@]2(C)[C@@H](O)CC[C@@H]12,Log K,[1],5
O=C(CCCN1CCN(CCC2CC3=CC=CC3C2=O)CC1)c1ccc(F)cc1 (centres undefined),Ki,[5],42.7 nM
O=C(c1ccc(F)cc1)C1CCN(CCC2CC3=CC=CC3C2=O)CC1 (centres undefined),Ki,[5],7.08 nM
CC(=O)[C@H]1CC[C@H]2[C@@H]3CCC4=CC(=O)CC[C@]4(C)[C@H]3C(=O)C[C@]12C,Log K,[1],6.78
C[C@]12CCC(=O)C=C1CC[C@@H]1[C@@H]2CC[C@@]2(C)[C@H]1CC[C@]2(O)C(=O)CO,Log K,[6],7.88
C[C@]12CCC(=O)C=C1CC[C@@H]1[C@@H]2[C@@H](O)C[C@@]2(C)[C@H]1CC[C@]2(O)C(=O)CO,Log K,[1],7.88
CC(=O)OCC(=O)[C@@]1(O)CC[C@H]2[C@@H]3CCC4=CC(=O)CC[C@]4(C)[C@H]3[C@@H](O)C[C@@]21C,Log K,[1],7.55
CC(=O)[C@H]1CC[C@H]2[C@@H]3CCC4=CC(=O)CC[C@@H]4[C@H]3CC[C@]12C,Log K,[1],7.12
O=C1C(CCN2CCC(c3noc4cc(F)ccc34)CC2)CC2=CC=CC12 (centres undefined),Ki,[5],1.74 nM
NC(=O)C1OC(CO)C(O)C(O)C1O (stereo in doubt; 2),Log K,[7],5
same,pKi,[3],3.43
C[C@]12CC[C@H]3[C@@H](CCC4=CC(=O)CC[C@@]43C)[C@@H]1CC[C@@H]2C(=O)CO,Log K,[1],7.65
C[C@]12CCC(=O)C=C1CC[C@@H]1[C@@H]2C(=O)C[C@@]2(C)[C@H]1CC[C@]2(O)C(=O)CO,Log K,[1],6.89
C[C@]12CC[C@@H]3c4ccc(O)cc4CC[C@H]3[C@@H]1CC[C@@H]2O,Log K,[1],5
CC(=O)[C@H]1CC[C@H]2[C@@H]3CC=C4C[C@@H](O)CC[C@]4(C)[C@H]3CC[C@]12C,Log K,[1],5.25
C[C@]12CC[C@H]3[C@@H](CCC4=CC(=O)CC[C@@]43C)[C@@H]1CC[C@@H]2O,Log K,[1],6.72
CC(=O)[C@@]1(O)CC[C@H]2[C@@H]3CC[C@@H]4C[C@H](O)CC[C@]4(C)[C@H]3CC[C@@]21C,Log K,[1],5
CC(=O)C1[C@H](C)CC2C3CC=C4CC(=O)CCC4(C)C3CCC21C (some centres undefined),Log K,[1],6.25
CC(=O)[C@H]1CC[C@H]2[C@@H]3CCC4=CC(=O)CC[C@]4(C)[C@H]3CC[C@]12C,Log Ki,[8],7.38 mM
C[C@]12CC[C@H](O)CC1=CC[C@@H]1[C@@H]2CC[C@]2(C)C(=O)CC[C@@H]12,Log K,[1],5
COC(=O)N[C@]1(C(N)=O)O[C@H](CO)[C@@H](O)[C@H](O)[C@H]1O,Log K,[9],7.88
same,pKi,[3],4.8
C[C@]12C=CC(=O)C=C1CC[C@@H]1[C@@H]2[C@@H](O)C[C@@]2(C)[C@H]1CC[C@]2(O)C(=O)CO,Log K,[6],6.72
C[C@@H]1C[C@@]2(C)C(=CC1=O)CC[C@H]1[C@@H]3CC[C@](O)(C(=O)CO)[C@@]3(C)C[C@H](O)[C@@]12F,Log K,[1],5.8
N#CC[C@@H]1O[C@H](CO)[C@@H](O)[C@H](O)[C@H]1O,Log K,[10],5.61
same,pKi,[3],2.05
C[C@]12C[C@@H](O)[C@H]3[C@@H](CCC4=CC(=O)CC[C@@]43C)[C@@H]1CC[C@@H]2C(=O)CO,Log K,[6],6.78
NC(=O)C1OC(CO)C(O)C(O)C1O (stereo in doubt; 3),Log K,[11],5
same,pKi,[3],3.36
C[C@]12CC[C@H]3[C@@H](CCC4=CC(=O)CC[C@@H]43)[C@@H]1CC[C@@H]2O,Log K,[1],7.2
CC(=O)[C@@]1(O)CC[C@H]2[C@@H]3CCC4=CC(=O)CC[C@]4(C)[C@H]3CC[C@@]21C,Log K,[1],7.74
C[C@]12CCC(=O)C=C1CC[C@@H]1[C@@H]2[C@@H](O)C[C@]2(C=O)[C@@H](C(=O)CO)CC[C@@H]12,Log K,[6],6.28
C[C@]12C[C@H](O)[C@H]3[C@@H](CCC4=CC(=O)CC[C@@]43C)[C@@H]1CC[C@@H]2C(=O)CO,Log K,[1],7.88
COC(=O)C1OC(CO)C(O)C(O)C1O (centres undefined),Log K,[12],5.76
same,pKi,[3],2.55
NC(=O)N[C@H]1O[C@H](CO)[C@@H](O)[C@H](O)[C@H]1O,Log K,[13],7.88
same,pKi,[3],3.85
